According to patent US7888367B2, “1-[2′,3′ -dideoxy-3′ C-(hydroxymethyl)—beta-D-erythro-pentofuranosyl] cytosine derivatives as HIV” (Medivir AB, priority 2005, dated 2011):

Legend:
[1] = reference compounds (markers) of the permeability assay; cited from earlier work
[2] = system: HIV-1 isolate 4 (K65R+M184V discriminative mutant); experiment: PhenoSense HIV assay, Example 2d; format: cell-based
[3] = system: HIV-1 primer rescue-related TAM patient isolates 20 and 21; experiment: PhenoSense HIV assay, Example 2a; format: cell-based; conditions: for potency against patient virus compared to wildtype: isolates 20 and 21
Protocol: (§1) The susceptibility of the compounds of the invention, measured as the plasma metabolite 2′,3′-dideoxy, 3′-C-hydroxymethyl-β-D-erythropentofuranosylcytosine on HIV-1 isolates from patient plasma samples that bear typical TAM primer rescue mutant resistant genotypes is determined by the commercially available PhenoSense HIV assay (described in Petropoulos, C J et al., (2000) Antimicrob. Agents Chemother. 44:920-928 and performed by ViroLogics, Inc). The assay is performed by amplifying the protease (PR)—RT segment of the HIV pol gene from patient plasma and inserting the amplification products into a modified HIV-1 vector derived from an NL4-3 molecular clone.
(§2) Viral stocks are prepared by co-transfecting 293 cell cultures with recombinant viral DNA vector and an expression vector that produces the amphotropic murine leukemia virus envelope proteins. Pseudotyped virus particles are harvested from the transfected cell cultures and are used to infect fresh 293 cell cultures. The recombinant viral DNA contains a luciferase gene cassette within the HIV env gene region and the production of luciferase in target cells is dependent on the completion of one round of virus replication. Drug susceptibility is measured by adding serial concentrations of the compound of the invention and the reference compounds to the cells. Drugs that inhibit virus replication reduce luciferase signal in a dose-dependent manner, providing a quantitative measure of drug susceptibility.
Wild-type HIV virus is used as the reference. Here, the inhibition of the patient isolate 20 and 21 strains is expressed as the fold change in reduction of susceptibility to the treatment drug as compared to parallel runs of the reference. The following antiviral drugs were tested: AZT, 3TC, TNF, ABC, d4T, FTC and the compound of the invention, as the plasma metabolite 2′,3′-dideoxy, 3′-C-hydroxymethyl-β-D-erythropentofuranosylcytosine.

[4] = system: HIV-1 TAM primer rescue-related patient isolate 19 (M184V + TAMs); experiment: PhenoSense HIV assay, Example 2b; format: cell-based
Protocol: as §1
as §2, with “The recombinant viral DNA contains a luciferase gene cassette within the HIV env gene region and the production of luciferase in target cells is dependent on the completion of one round of virus replication.” left out, “susceptibility. […]” for “susceptibility.”

[5] = system: HIV-1 primer rescue-related patient isolates 31, 32 and 35 (T69S+XX+TAMs); experiment: PhenoSense HIV assay, Example 2c; format: cell-based
Protocol: as §1, §2
Continuous challenge of patients with antiretroviral agents results in the emergence of MDR. A T69S mutation with a 6-bp insertion between amino acids 68 and 70 in the finger region of RT is often seen in combination with various forms of TAMs and contributes to an enhanced primer rescue activity. A cluster of MDR (with different forms of amino acid insertion(s)) in combination with TAM was chosen, as outlined in Table 3.

[6] = system: TAM primer rescue-related resistant HIV-1 isolates in PBMC; experiment: Drug susceptibility assay in PBMC culture (p24 antigen); format: cell-based
Protocol: The antiviral performance of the compound of the invention against additional TAM primer rescue-related resistant HIV isolates was assayed in a PBMC culture. Isolates of HIV-1 were generated and expanded to high titer by co-cultivation of infected patient PBMC with PHA-stimulated donor PBMC (Virology Manual for ACTG HIV Laboratories). The cell-free supernatants were harvested, sequenced, and stored in aliquots at −70° C. for drug susceptibility assays.
In vitro drug susceptibility assays were performed using a modified ACTG/DOD consensus method (Virology Manual for ACTG HIV laboratories). PBMCs were pre-infected with viral stocks for 4 hrs at 37° C. in a humidified atmosphere of 5% CO2 following 4 hr incubation. Infected cells were washed twice in media and pipetted into a microtiter plate with eight serial drug dilutions. Each well contained 100,000 pre-infected PBMC and all drug dilutions were made with cell culture medium. The drug dilutions were chosen to span the 50% inhibitory concentration (IC50) for each single drug. Control wells containing cells and virus were co-incubated on each plate. After a 7-day incubation at 37° C. in a […] atmosphere of 5% CO2, viral growth was determined using a p24 antigen assay on supernatants (Abbott Laboratories, Chicago, USA). The percent inhibition of viral growth compared to the control well, which contained no drug, was calculated and expressed as fold changes (reductions in compounds susceptibility) compared to the control well. The reference compound AZT was run in parallel with the compound of the invention.
A cluster of representative of primer rescue-related mutant virus was selected that harbors the essential feature of primer rescue-related TAM resistant RT mutations. Strains with mutations at position M41L, D67N, K70R, L210W, T215Y/F and K219Q/E in various combinations with or without discriminative mutant M184V were used as indicated in Table 4.

## CN(Cc1cnc2nc(N)nc(N)c2n1)c1ccc(C(=O)N[C@@H](CCC(=O)O)C(=O)O)cc1 [Methotrexate]
[1]
  % absorption in man: 20%

## Nc1ccn([C@@H]2CS[C@H](CO)O2)c(=O)n1 [Example 3TC, lamivudine]
[2]
  FC value (fold change in susceptibility): > 200

## Nc1nc(=O)n([C@@H]2CS[C@H](CO)O2)cc1F [FTC, emtricitabine]
[2]
  FC value (fold change in susceptibility): > 40
[3]
  potency against patient virus compared to wildtype: lost potency

## N[C@@H](Cc1ccccc1)C(=O)O [L-Phenylalanine]
[1]
  % absorption in man: 100%

## Nc1ccn([C@H]2C[C@H](CO)[C@@H](CO)O2)c(=O)n1 [2′,3′-dideoxy, 3′-C-hydroxymethyl-β-D-erythropentofuranosylcytosine]
[4]
  fold difference in susceptibility compared to wild type HIV: 1.78 fold
[5]; isolate 32
  fold change in susceptibility: 2.79 fold
[5]; isolate 35
  fold change in susceptibility: 4.29 fold
[5]; isolates 31, 32 and 35
  change in drug susceptibility compared with six reference antivirals: smallest change in drug susceptibility
[2]
  FC value (fold change in susceptibility): 3.88
[6]; all 8 isolates of Table 4
  highest FC value over all 8 isolates: ≤ 2.7
[3]; isolate 20
  fold reduction in susceptibility vs wild-type HIV: 1.0 fold
[3]; isolate 21
  fold reduction in susceptibility vs wild-type HIV: < 1.0 fold

## C[C@H](Cn1cnc2c(N)ncnc21)OCP(=O)(O)O [TFN, tenofovir]
[3]
  potency against patient virus compared to wildtype: lost potency

## OC[C@@H](O)[C@@H](O)[C@H](O)[C@H](O)CO [Mannitol]
[1]
  % absorption in man: 16%

## Cc1cn([C@H]2C=C[C@@H](CO)O2)c(=O)[nH]c1=O [d4T, stavudine]
[2]
  FC value (fold change in susceptibility): 0.71
[3]
  potency against patient virus compared to wildtype: lost potency

## Cc1cn([C@H]2C[C@H](N=[N+]=[N-])[C@@H](CO)O2)c(=O)[nH]c1=O [AZT, zidovudine]
[4]
  activity against the resistant virus: lost activity
[2]
  FC value (fold change in susceptibility): 1.11
[6]; isolate 7086 (T215V)
  FC value: 3.0
[6]; most of the selected primer rescue mutants
  drop in FC value: a couple of hundred folds
[3]; isolates 20 and 21, isolate not specified
  fold reduction in susceptibility vs wild-type HIV: 451 fold

## Nc1nc(NC2CC2)c2ncn([C@H]3C=C[C@@H](CO)C3)c2n1 [ABC, abacavir]
[2]
  FC value (fold change in susceptibility): > 9.0
[3]
  potency against patient virus compared to wildtype: lost potency
